Measured values: the supplement of paper PMC10307832

What was measured:
Experiment in all cases: relative viability (nuclei count vs DMSO), 5 days (fraction); higher = more cells survive
Bortezomib + Luminespib = compound: CC(C)C[C@H](NC(=O)[C@H](Cc1ccccc1)NC(=O)c1cnccn1)B(O)O [Bortezomib] + CCNC(=O)c1noc(-c2cc(C(C)C)c(O)cc2O)c1-c1ccc(CN2CCOCC2)cc1 [Luminespib] (partner 0.01 µM)
In short: (§1)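 Dosing by pin tool came one day after lung cancer cell lines were seeded in 1536-well plates, using either one drug or a fixed anchor-drug dose plus five library-drug doses (not always all listed) in √10 steps. After 5 days, nuclei were counted on 4× images. Relative viability is treated-well nuclei count divided by vehicle-well nuclei count, and values are medians of duplicate plates.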

[1] = compound: CC1=CC(=NN1)NC2=CC(=NC(=N2)/C=C/C3=CC=CC=C3)N4CCN(CC4)C + CCNC(=O)c1noc(-c2cc(C(C)C)c(O)cc2O)c1-c1ccc(CN2CCOCC2)cc1 [Luminespib] (partner 0.01 µM)
In short: as §1

[2] = compound: CC1=CC(=NN1)NC2=CC(=NC(=N2)/C=C/C3=CC=CC=C3)N4CCN(CC4)C + Cc1cc(Nc2cc(N3CCN(C)CC3)nc(Sc3ccc(NC(=O)C4CC4)cc3)n2)n[nH]1 [Tozasertib] (partner 0.1 µM)
In short: as §1

[3] = compound: CC1=CC(=NN1)NC2=CC(=NC(=N2)/C=C/C3=CC=CC=C3)N4CCN(CC4)C + NC(=O)Nc1cc(-c2cccc(F)c2)sc1C(=O)N[C@H]1CCCNC1 [AZD7762] (partner 0.2 µM)
In short: as §1

NCI-H1793
relative viability (Bortezomib + Luminespib; first compound 0.0002 µM): 0.184 | relative viability (Bortezomib + Luminespib; first compound 0.000632 µM): 0.151 | relative viability (Bortezomib + Luminespib; first compound 0.002 µM): 0.171 | relative viability (Bortezomib + Luminespib; first compound 0.006325 µM): 0.204 | relative viability (Bortezomib + Luminespib; first compound 0.02 µM): 0.127 | relative viability ([1]; first compound 0.08 µM): 0.16 | relative viability ([1]; first compound 0.253 µM): 0.184 | relative viability ([1]; first compound 0.8 µM): 0.151 | relative viability ([1]; first compound 2.53 µM): 0.136 | relative viability ([1]; first compound 8 µM): 0.116 | relative viability ([2]; first compound 0.08 µM): 0.298 | relative viability ([2]; first compound 0.253 µM): 0.537 | relative viability ([2]; first compound 0.8 µM): 0.207 | relative viability ([2]; first compound 2.53 µM): 0.123 | relative viability ([2]; first compound 8 µM): 0.111 | relative viability ([3]; first compound 0.08 µM): 0.412 | relative viability ([3]; first compound 0.253 µM): 0.373 | relative viability ([3]; first compound 0.8 µM): 0.452 | relative viability ([3]; first compound 2.53 µM): 0.129 | relative viability ([3]; first compound 8 µM): 0.0904

NCI-H2347
relative viability (Bortezomib + Luminespib; first compound 0.0002 µM): 0.558 | relative viability (Bortezomib + Luminespib; first compound 0.000632 µM): 0.607 | relative viability (Bortezomib + Luminespib; first compound 0.002 µM): 0.411 | relative viability (Bortezomib + Luminespib; first compound 0.006325 µM): 0.25 | relative viability (Bortezomib + Luminespib; first compound 0.02 µM): 0.208 | relative viability ([1]; first compound 0.08 µM): 0.524 | relative viability ([1]; first compound 0.253 µM): 0.371 | relative viability ([1]; first compound 0.8 µM): 0.501 | relative viability ([1]; first compound 2.53 µM): 0.389 | relative viability ([1]; first compound 8 µM): 0.22 | relative viability ([2]; first compound 0.08 µM): 0.501 | relative viability ([2]; first compound 0.253 µM): 0.565 | relative viability ([2]; first compound 0.8 µM): 0.518 | relative viability ([2]; first compound 2.53 µM): 0.461 | relative viability ([2]; first compound 8 µM): 0.257 | relative viability ([3]; first compound 0.08 µM): 0.544 | relative viability ([3]; first compound 0.253 µM): 0.788 | relative viability ([3]; first compound 0.8 µM): 0.911 | relative viability ([3]; first compound 2.53 µM): 0.484 | relative viability ([3]; first compound 8 µM): 0.32

A-427
relative viability (Bortezomib + Luminespib; first compound 0.0002 µM): 0.889 | relative viability (Bortezomib + Luminespib; first compound 0.000632 µM): 0.926 | relative viability (Bortezomib + Luminespib; first compound 0.002 µM): 0.589 | relative viability (Bortezomib + Luminespib; first compound 0.006325 µM): 0.33 | relative viability (Bortezomib + Luminespib; first compound 0.02 µM): 0.125 | relative viability ([1]; first compound 0.08 µM): 0.775 | relative viability ([1]; first compound 0.253 µM): 0.984 | relative viability ([1]; first compound 0.8 µM): 0.873 | relative viability ([1]; first compound 2.53 µM): 0.361 | relative viability ([1]; first compound 8 µM): 0.105 | relative viability ([2]; first compound 0.08 µM): 0.212 | relative viability ([2]; first compound 0.253 µM): 0.136 | relative viability ([2]; first compound 0.8 µM): 0.178 | relative viability ([2]; first compound 2.53 µM): 0.0979 | relative viability ([2]; first compound 8 µM): 0.0938 | relative viability ([3]; first compound 0.08 µM): 0.83 | relative viability ([3]; first compound 0.253 µM): 0.683 | relative viability ([3]; first compound 0.8 µM): 0.713 | relative viability ([3]; first compound 2.53 µM): 0.238 | relative viability ([3]; first compound 8 µM): 0.163

PC-14
relative viability (Bortezomib + Luminespib; first compound 0.0002 µM): 0.153 | relative viability (Bortezomib + Luminespib; first compound 0.000632 µM): 0.163 | relative viability (Bortezomib + Luminespib; first compound 0.002 µM): 0.13 | relative viability (Bortezomib + Luminespib; first compound 0.006325 µM): 0.0991 | relative viability (Bortezomib + Luminespib; first compound 0.02 µM): 0.109 | relative viability ([1]; first compound 0.08 µM): 0.169 | relative viability ([1]; first compound 0.253 µM): 0.158 | relative viability ([1]; first compound 0.8 µM): 0.12 | relative viability ([1]; first compound 2.53 µM): 0.121 | relative viability ([1]; first compound 8 µM): 0.0829 | relative viability ([2]; first compound 0.08 µM): 0.634 | relative viability ([2]; first compound 0.253 µM): 0.619 | relative viability ([2]; first compound 0.8 µM): 0.55 | relative viability ([2]; first compound 2.53 µM): 0.359 | relative viability ([2]; first compound 8 µM): 0.0595 | relative viability ([3]; first compound 0.08 µM): 0.346 | relative viability ([3]; first compound 0.253 µM): 0.446 | relative viability ([3]; first compound 0.8 µM): 0.354 | relative viability ([3]; first compound 2.53 µM): 0.28 | relative viability ([3]; first compound 8 µM): 0.0653

NCI-H2087
relative viability (Bortezomib + Luminespib; first compound 0.0002 µM): 0.163 | relative viability (Bortezomib + Luminespib; first compound 0.000632 µM): 0.145 | relative viability (Bortezomib + Luminespib; first compound 0.002 µM): 0.164 | relative viability (Bortezomib + Luminespib; first compound 0.006325 µM): 0.0644 | relative viability (Bortezomib + Luminespib; first compound 0.02 µM): 0.0565 | relative viability ([1]; first compound 0.08 µM): 0.209 | relative viability ([1]; first compound 0.253 µM): 0.212 | relative viability ([1]; first compound 0.8 µM): 0.158 | relative viability ([1]; first compound 2.53 µM): 0.119 | relative viability ([1]; first compound 8 µM): 0.136 | relative viability ([2]; first compound 0.08 µM): 0.229 | relative viability ([2]; first compound 0.253 µM): 0.238 | relative viability ([2]; first compound 0.8 µM): 0.195 | relative viability ([2]; first compound 2.53 µM): 0.162 | relative viability ([2]; first compound 8 µM): 0.11 | relative viability ([3]; first compound 0.08 µM): 1.27 | relative viability ([3]; first compound 0.253 µM): 1.4 | relative viability ([3]; first compound 0.8 µM): 1.39 | relative viability ([3]; first compound 2.53 µM): 0.703 | relative viability ([3]; first compound 8 µM): 0.176

HOP-62
relative viability (Bortezomib + Luminespib; first compound 0.0002 µM): 0.921 | relative viability (Bortezomib + Luminespib; first compound 0.000632 µM): 0.907 | relative viability (Bortezomib + Luminespib; first compound 0.002 µM): 0.67 | relative viability (Bortezomib + Luminespib; first compound 0.006325 µM): 0.288 | relative viability (Bortezomib + Luminespib; first compound 0.02 µM): 0.0887 | relative viability ([1]; first compound 0.08 µM): 0.953 | relative viability ([1]; first compound 0.253 µM): 0.966 | relative viability ([1]; first compound 0.8 µM): 0.888 | relative viability ([1]; first compound 2.53 µM): 0.849 | relative viability ([1]; first compound 8 µM): 0.35 | relative viability ([2]; first compound 0.08 µM): 0.354 | relative viability ([2]; first compound 0.253 µM): 0.366 | relative viability ([2]; first compound 0.8 µM): 0.377 | relative viability ([2]; first compound 2.53 µM): 0.261 | relative viability ([2]; first compound 8 µM): 0.18 | relative viability ([3]; first compound 0.08 µM): 0.673 | relative viability ([3]; first compound 0.253 µM): 0.615 | relative viability ([3]; first compound 0.8 µM): 0.778 | relative viability ([3]; first compound 2.53 µM): 0.385 | relative viability ([3]; first compound 8 µM): 0.159
